# Assay results published in patent US20230414634A1, “METHODS FOR TREATING CHOLESTATIC PRURITUS” (GlaxoSmithKline Intellectual Property (No.2) Limited, priority 2020, published 2023).
# Experiments:
# [1] = system: patients with PBC and cholestatic pruritus; test: GLIMMER Phase 2b study (NCT02966834): itch efficacy and PBC-40 quality of life; format: in vivo, human; details: for mean increase in itch responder days: difference from placebo, 12 weeks' treatment
# From the text: Measurement of Itch (pruritus)—10 Point Numerical Rating Scale (NRS) • Itch Score: itch scores recorded by study participants twice daily; a 0-10 Numerical Rating Scale (NRS) is used to assess itch with a response option of 0 representing no itching and 10 the worst imaginable itching • Worst Daily Itch Score: the worst of two itch scores recorded by a patient daily is considered the score for that day (i.e. the most severe (highest) NRS recorded on a given day) • Mean Worst Daily Itch Score (Weekly Itch Score [WIS]): the average of the Worst Daily Itch Scores in one week (7 days) • Monthly Itch Score (MIS): the worst Mean Worst Daily Itch Score for that month (i.e., worst week score of the 4 weeks) • Itch Response: for example, ≥2-point improvement in mean Worst Daily Itch Score from Baseline • Itch Responder Days: days when the Itch Response definition is met (i.e. days with an Itch Response) • Itch Severity: measured using 0-10 NRS; moderate to severe is ≥4 NRS • Baseline (itch score at the end of the placebo period before treatment,) is the average of the itch scores in the 7 days prior to randomisation (in Example 2, prior to randomisation at Week 4) • Change from Baseline was calculated as the post-Baseline value minus the Baseline value.
# GLIMMER trial: Phase 2b study (NCT02966834; GSK study 201000). A randomized, double-blind, placebo-controlled study of linerixibat, an inhibitor of the ileal bile acid transporter, in the treatment of cholestatic pruritus in primary biliary cholangitis, for patients with PBC and pruritus.
# The twice daily patient-reported 0-10 Numerical Rating Scale (NRS) worst itch assessment was employed, with the worst value from each day used to calculate the mean worst daily itch, which was then used to assess change in pruritus. This measure has independent content validity in PBC; similar measures are psychometrically valid and have been used to determine changes in itch intensity in PBC.
# Patients with PBC with pruritus (≥4 on 0-10 numeric rating scale [NRS]) were enrolled; double-blind treatment was preceded and followed by 4 weeks' single-blind placebo.
# At Week 4, patients with NRS ≥3 were randomized,(4:1) to double-blind linerixibat or placebo for 12 weeks (to Week 16), followed by single-blind placebo (to Week 20).
# Primary endpoint: mean change from baseline in mean Worst Daily Itch Score at Week 16. Participants were required to score the severity of their itching using the 0-10 NRS, from which the Worst Daily Itch Score is obtained, and the Mean Worst Daily Itch score was calculated as the average of the worst daily itch scores provided in the 7 days prior to the Week 16 visit. Baseline is the average of the scores in the 7 days prior to the Week 4, and the Change from Baseline was calculated. Analysis was done using Analysis of covariance (ANCOVA) including treatment group and centered Mean Worst Daily Itch score at Baseline.
# Secondary and exploratory endpoints: itch efficacy, quality of life (PBC-40) and pharmacodynamic biomarkers, and safety and tolerability.
# Ad hoc endpoint: change from baseline itch compared with Monthly Itch Score over the main study period.
# Due to the potential fluctuation of itch over time, an additional post-hoc analysis was conducted on the primary endpoint according to the FDA preferred approach to evaluate the effect over the entire 12 weeks treatment duration using Monthly Itch Score. A mixed model repeated measures (or mixed-effect repeated measure model) (MMRM) analysis estimated the effect of linerixibat comparing to placebo over the entire 12 weeks treatment duration.
# [2] = system: TSBA, C4, FGF-19, serum autotaxin and LDL cholesterol; test: GLIMMER Phase 2b study: pharmacodynamic serum biomarkers; format: in vivo, human
# From the text: The following biomarkers are useful in clinical investigations relating to the treatment of pruritus, particularly cholestatic pruritus:
# Serum 7-α-hydroxy-4-cholesten-3-one (C4)
# C4 is an intermediate in the biochemical synthesis of bile acids from cholesterol. C4 concentrations reflect the activity of the bile acid synthetic pathway.
# FGF-19 a protein which functions as a hormone, regulating bile acid synthesis, with effects on glucose and lipid metabolism.
# Autotaxin is the enzyme that produces lysophosphatidic acid (LPA) which is found to correlate with itch intensity.
# LDL one of the five major groups of lipoprotein which transport all fat molecules around the body in the extracellular water.
# TSBA are metabolized in the liver and can serve as a marker for normal liver function.
# Measurement of Level of Pharmacodynamic Biomarkers
# Total serum bile acids (TSBA) (FIG. 10)
# Serum 7-α-hydroxy-4-cholesten-3-one (C4) (FIG. 2)
# Serum fibroblast growth factor-19 (FGF-19) (FIG. 7)
# Serum LDL (low-density lipoprotein) cholesterol (FIG. 9)
# Further analysis of biomarker parameters provided clear indication of pharmacological action with decreases in total serum bile acids (TSBA), increases in the serum bile acid precursor C4 (7-a-hydroxy-4-cholesten-3-one) and corresponding mean decreases in fibroblast growth factor 19 (FGF-19), a hormone that regulates bile acid synthesis. […] Reductions in FGF-19 and autotaxin were also observed across most treatment groups during the main study period (excluding placebo for FGF-19 and linerixibat 20 mg QD for autotaxin) (FIG. 7, FIG. 8).
smiles,measurement,setting,value
CCCC[C@]1(CC)CS(=O)(=O)c2cc(CNC(CC(=O)O)CC(=O)O)c(OC)cc2[C@@H](c2ccccc2)N1 [linerixibat],responder days vs placebo,[1]; 40 mg BID and 90 mg BID,Significantly more
same,"Mean Worst Daily Itch Score of patients with moderate to severe itch at baseline, versus placebo","[1]; 40 mg BID, 12 weeks treatment",Significant difference
same,"PBC-40 emotional domain, LS Mean difference vs placebo","[1]; 40 mg BID, 95% CI: −1.9, 0.3",−0.8
same,"PBC-40 social domain, LS Mean difference vs placebo","[1]; 40 mg BID, 95% CI: −4.8, 0.1",−2.4
same,mean increase in itch responder days,[1]; 40 mg BID,20%
same,"LS Mean Change from Baseline vs Placebo in Monthly Itch Score over 12 weeks treatment (MMRM, post-hoc)","[1]; 40 mg BID, p=0.011",-1.16
same,"Monthly Itch Score, improvement from baseline over 12 weeks treatment","[1]; 40 mg and 90 mg BID, 180 mg QD",Significant improvement
same,mean increase in itch responder days,[1]; 90 mg BID,27%
same,"LS Mean Change from Baseline vs Placebo in Monthly Itch Score over 12 weeks treatment (MMRM, post-hoc)","[1]; 90 mg BID, p=0.037",−0.95
same,"LS Mean Change from Baseline vs Placebo in Monthly Itch Score over 12 weeks treatment (MMRM, post-hoc)","[1]; 180 mg QD, p=0.042",−0.90
same,pre-specified primary endpoint: dose response across dose ranges,[1]; ITT and per protocol populations,could not be established
same,mean Worst Daily Itch Score,[1]; all linerixibat doses,rapid improvement
same,"PBC-40 itch domain, change from baseline after 12 weeks","[1]; all treatment groups including placebo, p≤0.05",significant improvement
same,FGF-19 mean change from baseline compared with placebo (ANCOVA),[2]; 40 mg BID,statistically significant reductions
same,serum C4 increase,[2]; 40 mg BID and 90 mg BID doses,largest increase
same,serum autotaxin concentration compared with placebo,"[2]; 40 mg BID, Week 16",significantly decreased
same,C4 LS mean ratio increases from baseline (MMRM),[2]; 180 mg QD and both BID treatment groups,largest increases
same,LDL cholesterol compared to the placebo group,"[2]; Week 16, all linerixibat treatment groups with the exception of 20 mg QD",significantly reduced
same,fibroblast growth factor-19 (FGF-19) reduction,[2]; two BID doses of 40 mg and 90 mg,greatest reduction
same,total serum bile acids (TSBA) compared with baseline (MMRM),"[2]; week 16, 40 mg and 90 mg BID",statistically significant decrease
